Results taken from PMC12677599 (Advanced Science, 2025).
Read-outs that look alike come from different tables or passages of the source. Where a SMILES comes first, the peptide text is derived from it. [ ]: non-standard residue; d: D form. The star is where a group is joined. PEG4 = NCCOCCOCCOCCOCCC(=O)O; Piperidide = C1CCN(*)CC1

What was measured:
[1] = test system: H460 cell line; assay: cells; format: cell-based
Description: (§1) MTT assay was conducted as previously described.^[ [44] ^] Tumor cell lines (NCI‐H460, NCI‐H838, HT‐1080, MCF‐7, PC‐3, U‐251‐MG, and U‐87 MG) were seeded in 96‐well plates at a density of 8000 cells per well in a volume of 100 µL and cultured for 24 h. Normal cell lines (HaCaT, HMEC‐1, MRC‐5, and HEK‐293) were seeded in 96‐well plates at a density of 10 000 cells per well in a volume of 100 µL and cultured for 48 h. After that, only tumor cell lines were starved with 100 µL of SFM for a further 4–6 h. Subsequently, cells were treated with 100 µL of compound solutions with different concentrations for 24 h. Cells treated with SFM and 0.5% DMSO in SFM served as blank control and growth control, respectively. Ten µL of MTT solution (5 mg mL^−1) was added to each well, followed by an additional incubation period of 2 h for tumor cells and 4 h for normal cells. Finally, the solvent in each well was swapped with 100 µL of DMSO to dissolve the formazan crystals. The absorbance was measured by the plate reader at 570 nm.
(§2) The cell viability was calculated (1) Cellviability%=ODSamplegroup−ODBlank/ODGrowthgroup−ODBlank×100%

[2] = test system: HEK-293 normal cell line; assay: cells; format: cell-based
Description: as §1, §2

[3] = test system: H460 cells; assay: LDH release assay; format: cell-based; details: H460, 4 h dosing at each IC50 value; n = 3
Description: The seeding and starvation process were the same as cell antiproliferation evaluation. Cells were treated with 100 µL of compound solutions with different concentrations (compound 266 was tested at 12 µM) for 4 or 24 h. Cells treated with 0.5% DMSO in SFM and 1% Triton X‐100 in SFM served as blank control and positive control, respectively. Afterward, LDH working solution was prepared according to the instructions of the Cytotoxicity Detection Kit (LDH). Fifty µL of supernatant was transferred to another 96‐well plate, and 50 µL of LDH working solution was added to each well, followed by a 40 min incubation at room temperature. Subsequently, the absorbance of each well was measured by the plate reader at 490 nm.
The LDH release ratio was calculated as (3) LDHrelease%=ODSamplegroup−ODBlank/ODPositivegroup−ODBlank×100%

[4] = test system: H460 cells; assay: Killing rate evaluation, calcein-AM/PI double staining; format: cell-based; details: IC50 concentration, n = 2
Description: Calcien‐AM/PI double staining assay was used. NCI‐H460 cells were seeded in a chamber‐slide (154526, Thermo Fisher Scientific) at a density of 100 000 cells per unit in a volume of 500 µL and cultured for 24 h. After starvation with 300 µL of SFM for 4 h, cells were treated with 500 µL of compound solutions with different concentrations for 2, 4, 6, 8, 10 h, respectively. Cells treated with 0.5% DMSO in SFM served as control group. Subsequently, cells in each unit were washed with EBSS once, and incubated with 500 µL of 2 µg mL^−1 calcien‐AM solution at 37 °C for 20 min. Afterward, cells were stained with 500 µL of 2 µg mL^−1 PI solution at room temperature for 15 min and washed with EBSS 3 times. Finally, 300 µL of EBSS was added into each unit. Live (green fluorescence from calcein‐AM) and dead (red fluorescence from PI) cells were then observed and imaged under a fluorescence microscope (LEICA Dmi8). This evaluation was conducted with two biological replicates. Quantitative analyses of living cells were processed with ImageJ software (threshold set: 8‐255).

[5] = test system: HT-1080 cell line; format: cell-based; details: 24 h
Description: as §1, §2

[6] = test system: HMEC-1 normal cell line; format: cell-based; details: 24 h
Description: as §1, §2

[7] = test system: HaCaT normal cell line; format: cell-based; details: 24 h
Description: as §1, §2

[8] = test system: MRC-5 normal cell line; format: cell-based; details: 24 h
Description: as §1, §2

[9] = test system: H838 cell line; format: cell-based; details: 24 h
Description: as §1, §2

[10] = test system: matrix-metalloproteinase (MMP); assay: MMP cleavage detection in H460 condition medium; format: in vitro ADME; details: 50 µM in condition or control medium, HPLC and MS, n = 2
Description: NCI‐H460 cells were seeded in 48‐well plates at a density of 24 000 cells per well in a volume of 300 µL and cultured for 24 h. Afterward, 300 µL of SFM was added to each well followed by a 10 h incubation. Next, the supernatant of each well was transferred to 1.5 mL tubes. The supernatant of control group was incubated at 60 °C for 30 min (control medium) while the supernatant of dosing group (condition medium) had no incubation. […] Last, 150 µL of samples were analyzed by analytical HPLC and ESI‐MS. HPLC condition: gradient: 100% solution A from 0 to 5 min and 100% solution A to 0% solution A from 5 to 65 min; flow rate: 1 mL min^−1; detector wavelength: 214 nm. Each sample had two replicates.

[11] = test system: Paclitaxel-resistance (DR-PTX) H460 cell line; format: cell-based; details: 24 h
Description: as §1
(§3) Wild type H460 cells were cultured in a T‐75 flask and exposed to 30 µM of cisplatin. Cells were passed when the confluency reached 90%. The IC50 value of cisplatin on this cell line was evaluated every two passages. After the IC50 value was higher than 500 µM, the cultured medium was changed to normal CGM, and the cell line was cultured for another three passages. The IC50 value was evaluated again to make sure the resistance was stable. The other three resistance cell lines establishment process was similar. […] Parental NCI‐H460 cells were exposed to 10 µM 5‐fluorouracil, 2.5 µM paclitaxel, or 2.5 µM etoposide to generate 5‐fluorouracil‐resistant, paclitaxel‐resistant, and etoposide‐resistant cell lines, respectively.

[12] = test system: Etoposide-resistance (DR-EPT) H460 cell line; format: cell-based; details: 24 h
Description: as §1, §3

[13] = test system: Cisplatin-resistance H460 cell line; format: cell-based; details: 24 h
Description: as §1, §3

[14] = test system: 5-Fluorouracil-resistance H460 cell line; format: cell-based; details: 24 h
Description: as §1, §3

[15] = test system: H460 cell line; format: cell-based; details: 24 h
Description: as §1
The antimicrobial stability evaluation was determined in the presence of physiological concentrations of serum. Twenty five µL of compound solutions with the concentration of 3 mM and 25 µL of human serum were mixed. The mixture was incubated for 0, 2, 4, 6, 12, 24 h at 37 °C and then incubated for 15 min at 60 °C to inactivate the enzymes. […]

[16] = test system: Galleria mellonella larvae; assay: In vivo safety evaluation in G. mellonella larvae
Description: G. mellonella larvae (Livefoods Direct Ltd., Yorkshire, UK) were used to assess the in vivo safety of peptides. Experiments were conducted on larvae (250 ± 25 mg) incubated at 37 °C. Ten µL of compound 270 solutions with the final concentrations of 50, 80, and 120 µM were injected into the hemolymph via the second pair of prolegs (counting from the head). Control groups were injected with an equal volume of PBS. Larval survival and body weight were monitored every 1 day for a total of 5 days.

[17] = Compound remaining evaluation in human serum; format: in vitro ADME; details: 50% human serum (50 µL 3 mM compound + 50 µL serum), 37 °C, 24 h, ethanol precipitation, analytical HPLC 214 nm peak area vs 0 h, n = 2; read-out: remaining ratio in human serum after 24 h
Description: Compound solutions (50 µL, 3 mM) were mixed with human serum (50 µL) and incubated for 0, 2, 4, 6, 12, and 24 h at 37 °C. Ethanol (250 µL) was added to precipitate serum proteins, and the samples were centrifuged at 14 000 × g for 20 min at 4 °C. Subsequently, 150 µL of supernatant of each sample was analyzed with analytical HPLC and ESI‐MS/MS. HPLC condition: gradient: 100% solution A to 0% solution A from 0 to 60 min; flow rate: 1 mL min^−1; detector wavelength: 214 nm. Each sample had two replicates.
The compound remaining ratio was calculated as (7) Compoundremaining%=CompoundPeakAreanotat0h/CompoundPeakAreaat0h×100%

[18] = test system: erythrocytes; format: cell-based; details: red cells of horse, 2 h
Description: Defibrinated horse blood (1 mL) was washed 3 times with 0.9% NaCl solution to remove plasma and then resuspended in 20 mL of 0.9% NaCl solution to obtain a red blood cell (RBC) suspension. Aliquots of the RBC suspension (100 µL) were incubated with 100 µL of compound solutions at concentrations ranging from 100 to 1.5625 µM (twofold serial dilution) for 2 h at 37 °C. RBCs treated with 0.9% NaCl solution and 1% Triton X‐100 solution served as blank and positive controls, respectively. Subsequently, the samples were centrifuged at 900 × g for 10 min, and the absorbance of the supernatant was measured at 570 nm.
The hemolysis ratio was calculated as (2) Hemolysis%=ODSamplegroup−ODBlank/ODPositivegroup−ODBlank×100%

SMILES: COc1cc([C@@H]2c3cc4c(cc3[C@@H](O[C@@H]3O[C@@H]5CO[C@@H](C)O[C@H]5[C@H](O)[C@H]3O)[C@H]3COC(=O)[C@H]23)OCO4)cc(OC)c1O [Etoposide, etoposide, reference compound]
- IC50 ([1]; Homo sapiens, NCI-H460, Table S11, MTT, read-out: IC50 Value of chemotherapeutics, H460): 169 ± 29.2 µM
- IC50 ([2]; Homo sapiens, HEK293, Table S11, MTT, read-out: IC50 Value of chemotherapeutics, HEK-293): 115 ± 14.7 µM
- LDH release ratio [3]: no positive results
- cells eliminated within 10 h [4]: ≈ 10%

SMILES: CC[C@H](C)[C@H](NC(=O)[C@H](CCCCN)NC(=O)[C@@H]1CCCN1C(=O)[C@H](CC(C)C)NC(=O)[C@@H](NC(=O)[C@H](CO)NC(=O)[C@H](CCC(=O)N1CCCCC1)NC(=O)[C@H](CC(C)C)NC(=O)[C@H](CC(=O)O)NC(=O)[C@H](CC(=O)O)NC(=O)[C@H](Cc1ccccc1)NC(=O)[C@@H](NC(=O)[C@H](CCCCN)NC(=O)[C@@H]1CCCN1C(=O)[C@H](Cc1ccccc1)NC(=O)[C@@H](N)Cc1ccccc1)[C@@H](C)CC)[C@@H](C)CC)C(=O)N[C@@H](CC(C)C)C(=O)NCC(=O)N1CCC[C@H]1C(=O)N[C@@H](CC(C)C)C(=O)NCC(=O)N[C@@H](CC(C)C)C(=O)N[C@@H](C)C(=O)NCC(=O)NCCOCCOCCOCCOCCC(=O)NCCOCCOCCOCCOCCC(=O)NCCOCCOCCOCCOCCC(=O)NCCOCCOCCOCCOCCC(N)=O [compound 209] (H-FFPKIFDDLE(Piperidide)SILPKILGPLGLAG[PEG4][PEG4][PEG4][PEG4]-NH2)
- IC50 ([1]; 24 h): 53.4 µM
- IC50 ([2]; 24 h): 98.6 µM
- IC50 [5]: 86.8 ± 49.1 µM
- IC50 [6]: > 100 µM
- IC50 [7]: > 100 µM
- IC50 [8]: > 100 µM
- IC50 [9]: 84.5 ± 5.91 µM
- MMP-cleaved product detection / integrity in H460 medium [10]: remained intact
- IC50 [11]: 97.8 µM
- IC50 [12]: > 100 µM
- IC50 [13]: 94.3 µM
- IC50 [14]: 84.5 ± 4.55 µM

SMILES: CC[C@H](C)[C@H](NC(=O)[C@H](CCCCN)NC(=O)[C@@H]1CCCN1C(=O)[C@H](CC(C)C)NC(=O)[C@@H](NC(=O)[C@H](CO)NC(=O)[C@H](CCC(=O)N1CCCCC1)NC(=O)[C@H](CC(C)C)NC(=O)[C@H](CC(=O)O)NC(=O)[C@H](CC(=O)O)NC(=O)[C@H](Cc1ccccc1)NC(=O)[C@@H](NC(=O)[C@H](CCCCN)NC(=O)[C@@H]1CCCN1C(=O)[C@H](Cc1ccccc1)NC(=O)[C@H](Cc1ccccc1)NC(=O)[C@H](CCCCN)NC(=O)[C@H](C)N)[C@@H](C)CC)[C@@H](C)CC)C(=O)N[C@@H](CC(C)C)C(=O)NCC(=O)N1CCC[C@H]1C(=O)N[C@@H](CC(C)C)C(=O)NCC(=O)N[C@@H](CC(C)C)C(=O)N[C@@H](C)C(=O)NCC(=O)NCCOCCOCCOCCOCCC(=O)NCCOCCOCCOCCOCCC(=O)NCCOCCOCCOCCOCCC(=O)NCCOCCOCCOCCOCCC(=O)NCCOCCOCCOCCOCCC(=O)NCCOCCOCCOCCOCCC(N)=O [compound 270] (H-AKFFPKIFDDLE(Piperidide)SILPKILGPLGLAG[PEG4][PEG4][PEG4][PEG4][PEG4][PEG4]-NH2)
- IC50 [15]: 53.6 ± 2.04 µM
- IC95 value, H460 ([1]; 24 h): ≈ 55 µM
- IC50 ([2]; 24 h): > 100 µM
- inhibition of HEK-293 cells at 100 µM ([2]; 24 h, 100): 40%
- IC50 [6]: > 100 µM
- IC50 [7]: > 100 µM
- IC50 [8]: > 100 µM
- IC50 [11]: 35.3 ± 1.83 µM
- IC50 [12]: 28.1 ± 1.42 µM
- IC50 [13]: 54.7 ± 3.28 µM
- IC50 [14]: 56.44 ± 0.25 µM
- larval survival after 5 days, 50 µM ([16]; 10 µL injected into hemolymph, 50 µM, 37 °C, day 5): 77.8%
- larval survival after 5 days, 80 µM ([16]; 10 µL injected into hemolymph, 80 µM, 37 °C, day 5): 88.9%
- larval survival after 5 days, 120 µM ([16]; 10 µL injected into hemolymph, 120 µM, 37 °C, day 5): 77.8%
- melanization of larvae ([16]; 50, 80 or 120 µM, 5 days): No melanization
- remaining at 24 h, 1.5 mM [17]: ~100%
- HC10 (concentration causing 10% of erythrocytes lysis) [18]: >100 µM
